Laboratory results from paper PMC10998830 (Communications Chemistry, 2024).

How the values were obtained:
AbATPPRT [1] = target: T1, AbATPPRT (Acinetobacter baumannii, UniProt A0A7U3XWM9); assay: differential scanning fluorimetry, SYPRO Orange; format: binding; conditions: 250 μM PRATP, 8 μM enzyme, pH 8.5, 15 mM MgCl2, 100 mM KCl; unlabelled enzyme
T1 construct: gene hisG; hetero-octameric holoenzyme (two HisGS dimers flanking a HisZ tetramer) reconstituted in vitro from separately purified recombinant AbHisGS (E. coli BL21(DE3)) and AbHisZ; unlabelled (natural isotope abundance)
T1 sequence (A0A7U3XWM9 1-227): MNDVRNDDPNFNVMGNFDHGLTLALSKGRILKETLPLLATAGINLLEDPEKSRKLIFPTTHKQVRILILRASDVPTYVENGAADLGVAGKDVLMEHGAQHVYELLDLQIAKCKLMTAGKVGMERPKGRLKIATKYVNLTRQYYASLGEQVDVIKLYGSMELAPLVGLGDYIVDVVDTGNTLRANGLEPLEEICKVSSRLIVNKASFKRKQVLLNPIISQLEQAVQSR
T1 sequence (B2HWK9 1-388 partner): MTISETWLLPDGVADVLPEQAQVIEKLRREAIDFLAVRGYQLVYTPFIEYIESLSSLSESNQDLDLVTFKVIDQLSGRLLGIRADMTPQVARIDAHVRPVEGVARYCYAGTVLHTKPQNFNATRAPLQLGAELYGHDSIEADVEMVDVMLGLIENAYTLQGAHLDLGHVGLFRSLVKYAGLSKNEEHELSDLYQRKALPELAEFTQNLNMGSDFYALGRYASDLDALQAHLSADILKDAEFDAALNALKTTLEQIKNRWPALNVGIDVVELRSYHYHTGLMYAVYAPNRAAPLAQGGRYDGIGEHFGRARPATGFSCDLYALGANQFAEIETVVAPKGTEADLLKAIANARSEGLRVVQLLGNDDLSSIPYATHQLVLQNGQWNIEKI

AbATPPRT [2] = target: T1, AbATPPRT; assay: dose-response of initial rate, PRATP formation; format: biochemical

Row | SMILES | Tm increase (AbATPPRT [1]) | IC50 (AbATPPRT [2])
1 | N=c1c2ncn([C@@H]3O[C@H](COP(=O)(O)OP(=O)(O)OP(=O)(O)O)[C@@H](O)[C@H]3O)c2ncn1[C@@H]1O[C@H](COP(=O)(O)O)[C@@H](O)[C@H]1O [PRATP] | the presence of PRATP led only to marginal and mass-independent increases in Tm | –
2 | N[C@@H](Cc1c[nH]cn1)C(=O)O [histidine] | – | 93 ± 6 µM
